By IC50 is commonly meant the point on the concentration scale where inhibition reaches its midpoint.

For experiment [1], the target named is Recombinant human EIF2AK3 (PERK) catalytic domain (amino acids 536-1116) (Homo sapiens (Human), UniProt Q9NZJ5). The experiment is described as follows: PERK In Vitro Activity Assay (isolated), TR-FRET kinase assay. The note with it: isolated PERK enzyme, 1.5 μM ATP, read-out: Biochemical IC50. In outline:
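IC50 values come from 4-parameter logistic fits of TR-FRET ratios, read after 90 min with 2 nM terbium-labelled phospho-eIF2a antibody following an EDTA stop (10 mM final). The kinase reaction ran 45 min at room temperature, started by adding PERK catalytic domain to 100–200 nM GFP-eIF2a in HEPES pH 7.5 buffer with MgCl2, EGTA and Brij-35.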
On the technique in general: Time-resolved FRET reads energy transfer from a long-lived donor to a nearby acceptor.

Experiment [2] relates to eIF2α in HEK293-EGFP-eIF2α cells. The experiment is described as follows: PERK Cellular Assay (HEK293-EGFP-eIF2α cells, tunicamycin-induced ER stress, TR-FRET). The note with it: tunicamycin 2 hours. Type of experiment: cell-based. In a few lines: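 After 2 h tunicamycin ([…]) stress following 30 min compound pretreatment at 37 °C, lysed HEK293-EGFP-eIF2α cells were read by TR-FRET. IC50 derived by 4-parameter logistic fitting of percent inhibition, DMSO-normalized, from 10-point 3-fold dilutions.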

Recombinant human EIF2AK3 (PERK) catalytic domain (amino acids 536-1116), sequence (Q9NZJ5 536-1116): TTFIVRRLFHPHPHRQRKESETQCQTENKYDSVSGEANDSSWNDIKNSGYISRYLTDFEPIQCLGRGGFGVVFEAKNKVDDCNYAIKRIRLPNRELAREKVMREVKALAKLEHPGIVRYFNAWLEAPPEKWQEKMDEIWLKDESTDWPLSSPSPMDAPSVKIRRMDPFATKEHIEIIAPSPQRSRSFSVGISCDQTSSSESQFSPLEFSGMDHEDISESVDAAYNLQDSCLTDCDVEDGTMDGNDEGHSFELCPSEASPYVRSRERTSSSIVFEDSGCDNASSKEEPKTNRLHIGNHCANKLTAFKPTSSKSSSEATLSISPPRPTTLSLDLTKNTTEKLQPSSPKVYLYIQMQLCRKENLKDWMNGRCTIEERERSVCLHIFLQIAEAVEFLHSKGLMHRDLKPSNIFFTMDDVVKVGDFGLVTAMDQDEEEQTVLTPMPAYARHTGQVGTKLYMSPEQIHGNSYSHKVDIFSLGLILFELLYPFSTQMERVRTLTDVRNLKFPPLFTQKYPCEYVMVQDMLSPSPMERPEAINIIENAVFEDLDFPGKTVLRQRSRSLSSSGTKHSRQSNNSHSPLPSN

Turning to `[2H]C([2H])([2H])c1nc(-c2ccc(NC(=O)C(O)c3cccc(C(F)(F)F)c3)cc2F)c2c(N)nc(C)cn12` (stereo not shown) [Example 96, N-[4-[8-amino-6-methyl-3-(trideuteriomethyl)imidazo[1,5-a]pyrazin-1-yl]-3-fluoro-phenyl]-2-hydroxy-2-[3-(trifluoromethyl)phenyl]acetamide], the concentration for half-maximal inhibition (IC50) in experiment [1] and in experiment [2] was 1 to 25 nM in each case.

For `[2H]C([2H])([2H])c1nc(-c2ccc(NC(=O)C(O)c3cccc(Cl)c3)cc2F)c2c(N)nc(C)cn12` (stereo not shown) [Example 81, N-[4-[8-amino-6-methyl-3-(trideuteriomethyl)imidazo[1,5-a]pyrazin-1-yl]-3-fluoro-phenyl]-2-(3-chlorophenyl)-2-hydroxy-acetamide], the IC50 fell in the range of 1 to 25 nM in experiment [1] and 101 to 250 nM in experiment [2].

On to `[2H]C([2H])([2H])c1nc(-c2ccc(NC(=O)C(O)c3cccc(F)c3)cc2F)c2c(N)ncc(Cl)n12` (stereo not shown) [Example 74, N-[4-[8-amino-5-chloro-3-(trideuteriomethyl)imidazo[1,5-a]pyrazin-1-yl]-3-fluoro-phenyl]-2-(3-fluorophenyl)-2-hydroxy-acetamide], for which the IC50 in experiment [1] and in experiment [2] was 1 to 25 nM each time.

On to `[2H]C([2H])([2H])c1nc(-c2ccc(NC(=O)C(O)c3cccc(Cl)c3)c(F)c2F)c2c(N)ncc(Cl)n12` (stereo not shown) [Example 144, N-[4-[8-amino-5-chloro-3-(trideuteriomethyl)imidazo[1,5-a]pyrazin-1-yl]-2,3-difluoro-phenyl]-2-(3-chlorophenyl)-2-hydroxy-acetamide], for which the values for the IC50 in experiment [1] and in experiment [2] were 1 to 25 nM and 51 to 100 nM, respectively.

Take `[2H]C([2H])([2H])c1nc(-c2ccc(NC(=O)C(O)c3cc(F)cc(C(F)(F)F)c3)cc2C)c2c(N)nc(C)cn12` (stereo not shown) [Example 52, N-[4-[8-amino-6-methyl-3-(trideuteriomethyl)imidazo[1,5-a]pyrazin-1-yl]-3-methyl-phenyl]-2-[3-fluoro-5-(trifluoromethyl)phenyl]-2-hydroxy-acetamide]: the concentration for half-maximal inhibition (IC50) in experiment [1] was 1 to 25 nM; in experiment [2] it was 26 to 50 nM.

In the case of `CCc1cc(NC(=O)C(O)c2cccc(F)c2)ccc1-c1nc(C)n2c(C)cnc(N)c12` (stereo not shown) [Example 66, N-(4-(8-amino-3,5-dimethylimidazo [1,5-a]pyrazin-1-yl)-3-ethylphenyl)-2-(3-fluorophenyl)-2-hydroxy-acetamide], the IC50 in experiment [1] fell in the range of 1 to 25 nM; in experiment [2] it was 26 to 50 nM.

`[2H]C([2H])([2H])c1nc(-c2ccc(NC(=O)C(O)c3cc(F)cc(C(F)(F)F)c3)c(F)c2F)c2c(N)nc(C)cn12` (stereo not shown) [Example 167, N-[4-[8-amino-6-methyl-3-(trideuteriomethyl)imidazo[1,5-a]pyrazin-1-yl]-2,3-difluoro-phenyl]-2-[3-fluoro-5-(trifluoromethyl)phenyl]-2-hydroxy-acetamide]: the results for the concentration for half-maximal inhibition (IC50) in experiment [1] and in experiment [2] were 26 to 50 nM and 101 to 250 nM, respectively.

Take `[2H]C([2H])([2H])c1nc(-c2ccc(NC(=O)C(O)c3cccc(C(F)(F)F)c3)c(F)c2F)c2c(N)nc(C)cn12` (stereo not shown) [Example 151, N-[4-[8-amino-6-methyl-3-(trideuteriomethyl)imidazo[1,5-a]pyrazin-1-yl]-2,3-difluoro-phenyl]-2-hydroxy-2-[3-(trifluoromethyl)phenyl]acetamide]: the IC50 lay in the range of 51 to 100 nM in experiment [1] and 251 to 500 nM in experiment [2].

On to `[2H]C([2H])([2H])c1nc(-c2ccc(NC(=O)C(O)c3cccc(C(F)(F)F)c3)c(F)c2F)c2c(N)ncc(C(F)(F)F)n12` (stereo not shown) [Example 148, N-[4-[8-amino-3-(trideuteriomethyl)-5-(trifluoromethyl)imidazo[1,5-a]pyrazin-1-yl]-2,3-difluoro-phenyl]-2-hydroxy-2-[3-(trifluoromethyl)phenyl]acetamide], for which the concentration for half-maximal inhibition (IC50) in experiment [1] and in experiment [2] was 1 to 25 nM each time.

Regarding `[2H]C([2H])([2H])c1nc(-c2ccc(NC(=O)C(O)c3cccc(F)c3)c(F)c2F)c2c(N)nc(C)cn12` (stereo not shown) [Example 130, N-[4-[8-amino-6-methyl-3-(trideuteriomethyl)imidazo[1,5-a]pyrazin-1-yl]-2,3-difluoro-phenyl]-2-(3-fluoro-phenyl)-2-hydroxy-acetamide], the IC50 in experiment [1] and in experiment [2] was 1 to 25 nM throughout.

For the molecule `[2H]C([2H])([2H])c1nc(-c2ccc(NC(=O)C(O)c3cccc(F)c3)c(F)c2F)c2c(N)ncc(C)n12` (stereo not shown) [Example 132, N-[4-[8-amino-5-methyl-3-(trideuteriomethyl)imidazo[1,5-a]pyrazin-1-yl]-2,3-difluoro-phenyl]-2-(3-fluoro-phenyl)-2-hydroxy-acetamide], the half-inhibitory concentration (IC50) in experiment [1] and in experiment [2] was 1 to 25 nM throughout.

With `Cc1cnc(N)c2c(-c3ccc(NC(=O)C(O)c4cccc(F)c4)cc3)nc(C)n12` (stereo not shown) [Example 69, N-(4-(8-amino-3,5-dimethylimidazo [1,5-a]pyrazin-1-yl)phenyl)-2-(3-fluorophenyl)-2-hydroxyacetamide], the concentration for half-maximal inhibition (IC50) in experiment [1] and in experiment [2] was 1 to 25 nM in each case.

For `[2H]C([2H])([2H])c1nc(-c2ccc(NC(=O)C(O)c3cccc(C(F)(F)F)c3)cc2C)c2c(N)nc(C)cn12` (stereo not shown) [Example 15, N-[4-[8-amino-6-methyl-3-(trideuteriomethyl)imidazo[1,5-a]pyrazin-1-yl]-3-methyl-phenyl]-2-hydroxy-2-[3-(trifluoromethyl)phenyl]acetamide], the IC50 lay within 101 to 250 nM in experiment [1] and 251 to 500 nM in experiment [2].

For the molecule `[2H]C([2H])([2H])c1nc(-c2ccc(NC(=O)C(O)c3cccc(Cl)c3)c(F)c2F)c2c(N)ncc(C)n12` (stereo not shown) [Example 139, N-[4-[8-amino-5-methyl-3-(trideuteriomethyl)imidazo[1,5-a]pyrazin-1-yl]-2,3-difluoro-phenyl]-2-(3-chlorophenyl)-2-hydroxy-acetamide], the concentration for half-maximal inhibition (IC50) in experiment [1] is 1 to 25 nM; in experiment [2], 101 to 250 nM.

Take `Cc1cnc(N)c2c(-c3ccc(NC(=O)C(O)c4cccc(F)c4)c(F)c3)nc(C)n12` (stereo not shown) [Example 125, N-(4-(8-amino-3,5-dimethyl-imidazo[1,5-a]pyrazin-1-yl)-2-fluorophenyl)-2-(3-fluorophenyl)-2-hydroxy-acetamide]: the 50% inhibitory concentration (IC50) in experiment [1] and in experiment [2] was 1 to 25 nM in each case.

On to `Cc1cccc(C(O)C(=O)Nc2ccc(-c3nc(C)n4c(C)cnc(N)c34)c(F)c2)c1` (stereo not shown) [Example 88, N-(4-(8-amino-3,5-dimethylimidazo [1,5-a]pyrazin-1-yl)-3-fluoro-phenyl)-2-hydroxy-2-(m-tolyl)acetamide], for which the concentration for half-maximal inhibition (IC50) in experiment [1] and in experiment [2] was 1 to 25 nM each time.

On to `[2H]C([2H])([2H])c1nc(-c2ccc(NC(=O)C(O)c3cccc(F)c3)nc2C)c2c(N)nc(C)cn12` (stereo not shown) [Example 170, N-[5-[8-amino-6-methyl-3-(trideuteriomethyl)imidazo[1,5-a]pyrazin-1-yl]-6-methyl-2-pyridyl]-2-(3-fluorophenyl)-2-hydroxy-acetamide], for which the half-maximal inhibitory concentration (IC50) in experiment [1] fell in the range of 1 to 25 nM; in experiment [2] it was 101 to 250 nM.

`[2H]C([2H])([2H])c1nc(-c2cnc(NC(=O)C(O)c3cccc(C(F)(F)F)c3)cc2C)c2c(N)nc(C)cn12` (stereo not shown) [Example 183, N-[5-[8-amino-6-methyl-3-(trideuteriomethyl)imidazo[1,5-a]pyrazin-1-yl]-4-methyl-2-pyridyl]-2-hydroxy-2-[3-(tnfluoromethyl)phenyl]acetamide]: the 50% inhibitory concentration (IC50) in experiment [1] is 251 to 500 nM; in experiment [2], 2000 to 3000 nM.

On to `[2H]C([2H])([2H])c1nc(-c2ccc(NC(=O)C(O)c3cc(F)cc(C(F)(F)F)c3)cc2F)c2c(N)ncc(Cl)n12` (stereo not shown) [Example 114, N-[4-[8-amino-5-chloro-3-(trideuteriomethyl)imidazo[1,5-a]pyrazin-1-yl]-3-fluoro-phenyl]-2-[3-fluoro-5-(trifluoromethyl)phenyl]-2-hydroxy-acetamide], for which the IC50 in experiment [1] and in experiment [2] was 1 to 25 nM throughout.

In the case of `[2H]C([2H])([2H])c1nc(-c2ccc(NC(=O)C(O)c3cccc(F)c3)c(F)c2F)c2c(N)ncc(C(F)(F)F)n12` (stereo not shown) [Example 135, N-[4-[8-amino-3-(trideuteriomethyl)-5-(trifluoromethyl)imidazo[1,5-a]pyrazin-1-yl]-2,3-difluoro-phenyl]-2-(3-fluorophenyl)-2-hydroxy-acetamide], the values for the IC50 in experiment [1] and in experiment [2] were 101 to 250 nM and 501 to 1000 nM, respectively.

Consider `[2H]C([2H])([2H])c1nc(-c2ccc(NC(=O)C(O)c3cc(F)cc(F)c3)cc2F)c2c(N)ncc(C(F)(F)F)n12` (stereo not shown) [Example 106, N-[4-[8-amino-3-(trideuteriomethyl)-5-(trifluoromethyl)imidazo[1,5-a]pyrazin-1-yl]-3-fluoro-phenyl]-2-(3,5-difluoro-phenyl)-2-hydroxy-acetamide], for which the IC50 in experiment [1] and in experiment [2] was 1 to 25 nM throughout.

Consider `[2H]C([2H])([2H])c1nc(-c2ccc(NC(=O)C(O)c3cc(F)cc(F)c3)c(F)c2F)c2c(N)ncc(C)n12` (stereo not shown) [Example 154, N-[4-[8-amino-5-methyl-3-(trideuteriomethyl)imidazo[1,5-a]pyrazin-1-yl]-2,3-difluoro-phenyl]-2-(3,5-difluorophenyl)-2-hydroxy-acetamide], for which the IC50 in experiment [1] and in experiment [2] was 1 to 25 nM throughout.

Regarding `[2H]C([2H])([2H])c1nc(-c2ccc(NC(=O)C(O)c3cccc(Cl)c3)c(F)c2F)c2c(N)ncc(C(F)(F)F)n12` (stereo not shown) [Example 143, N-[4-[8-amino-3-(trideuteriomethyl)-5-(trifluoromethyl)imidazo[1,5-a]pyrazin-1-yl]-2,3-difluoro-phenyl]-2-(3-chlorophenyl)-2-hydroxy-acetamide], the IC50 in experiment [1] and in experiment [2] was 251 to 500 nM throughout.
